Results: patent US20160158317A1, “Antimicrobial Peptide Variants and Polynucleotides Encoding Same” (Adenium Biotech A/S, priority 2010, published 2016)
Where a SMILES comes first, the peptide text is derived from it. Bridges are numbered along the chain shown (N, C = ends).

Experiment: Determination of the protein binding (90% serum, 30 kDa filter, HPLC)
Format: in vitro ADME
Settings: serum
Method: Protein binding assays were performed as follows. The purified peptides were mixed with 90% serum and centrifuged through a 30 kDa filter. The ultra-filtrate and the non filtrated serum samples were quantified by HPLC measurements and the protein binding was subsequently calculated.
With `CC(C)C[C@@H]1NC(=O)CNC(=O)[C@H](CC(N)=O)NC(=O)[C@H](CCCNC(=N)N)NC(=O)[C@H](CCCCN)NC(=O)[C@H](C(C)C)NC(=O)[C@@H]2CSSC[C@H](NC(=O)[C@H](C(C)C)NC(=O)[C@H](CCCNC(=N)N)NC1=O)C(=O)N[C@@H](Cc1ccc(O)cc1)C(=O)N[C@@H](CCCNC(=N)N)C(=O)N[C@@H](CCCNC(=N)N)C(=O)N[C@H](C(=O)N[C@@H](CC(N)=O)C(=O)O)CSSC[C@H](NC(=O)[C@H](Cc1ccccc1)NC(=O)CN)C(=O)N[C@@H](Cc1c[nH]c3ccccc13)C(=O)N[C@@H](Cc1ccc(O)cc1)C(=O)N[C@@H]([C@@H](C)O)C(=O)N2` [compound 346] (H-GFCWYTCVKRNGLRVCYRRCN-OH; disulfide 3-20, 7-16 (inferred); N-terminus and C-terminus assumed) the fraction unbound was 0.14. In the case of `CC(C)[C@@H]1NC(=O)CNC(=O)[C@H](CC(N)=O)NC(=O)[C@H](CCCNC(=N)N)NC(=O)[C@H](Cc2ccc(O)cc2)NC(=O)[C@H](C(C)C)NC(=O)[C@@H]2CSSC[C@H](NC(=O)[C@H](C(C)C)NC(=O)[C@H](CCCNC(=N)N)NC1=O)C(=O)N[C@@H](Cc1c[nH]cn1)C(=O)N[C@@H](CCCNC(=N)N)C(=O)N[C@@H](Cc1c[nH]cn1)C(=O)N[C@H](C(=O)N[C@@H](CC(N)=O)C(=O)O)CSSC[C@H](NC(=O)[C@H](Cc1ccccc1)NC(=O)[C@@H](N)CCCNC(=N)N)C(=O)N[C@@H](Cc1c[nH]c3ccccc13)C(=O)N[C@@H](CC(N)=O)C(=O)N[C@@H](C(C)C)C(=O)N2` [compound 359] (H-RFCWNVCVYRNGVRVCHRHCN-OH; disulfide 3-20, 7-16 (inferred); N-terminus and C-terminus assumed), the fraction unbound was 0.2. Molecule `CC(C)[C@@H]1NC(=O)[C@H](CCCNC(=N)N)NC(=O)[C@H](C)NC(=O)CNC(=O)[C@H](CC(N)=O)NC(=O)[C@H](CCCNC(=N)N)NC(=O)[C@H](CCCCN)NC(=O)[C@H](C(C)C)NC(=O)[C@@H]2CSSC[C@H](NC1=O)C(=O)N[C@@H](Cc1ccc(O)cc1)C(=O)N[C@@H](CCCNC(=N)N)C(=O)N[C@@H](CCCNC(=N)N)C(=O)N[C@H](C(=O)N[C@@H](CC(N)=O)C(=O)O)CSSC[C@H](NC(=O)[C@H](Cc1ccccc1)NC(=O)CN)C(=O)N[C@@H](C)C(=O)N[C@@H](Cc1c[nH]cn1)C(=O)N[C@@H](C(C)C)C(=O)N2` [compound 362] (H-GFCAHVCVKRNGARVCYRRCN-OH; disulfide 3-20, 7-16 (inferred); N-terminus and C-terminus assumed) has a fraction unbound of 0.24. With `CC(C)[C@@H]1NC(=O)CNC(=O)[C@H](CC(N)=O)NC(=O)[C@H](CCCNC(=N)N)NC(=O)[C@H](CCCCN)NC(=O)[C@H](C)NC(=O)[C@@H]2CSSC[C@H](NC(=O)[C@H](C(C)C)NC(=O)[C@H](CCCNC(=N)N)NC1=O)C(=O)N[C@@H](Cc1ccc(O)cc1)C(=O)N[C@@H](CCCNC(=N)N)C(=O)N[C@@H](CCCNC(=N)N)C(=O)N[C@H](C(=O)N[C@@H](CC(N)=O)C(=O)O)CSSC[C@H](NC(=O)[C@H](Cc1ccccc1)NC(=O)CN)C(=O)N[C@@H](C)C(=O)N[C@@H](CCCNC(=N)N)C(=O)N[C@@H](C(C)C)C(=O)N2` [compound 363] (H-GFCARVCAKRNGVRVCYRRCN-OH; disulfide 3-20, 7-16 (inferred); N-terminus and C-terminus assumed) the fraction unbound was 0.2. `CC(C)[C@@H]1NC(=O)CNC(=O)[C@H](CC(N)=O)NC(=O)[C@H](CCCNC(=N)N)NC(=O)[C@H](CCCNC(=N)N)NC(=O)[C@H](C(C)C)NC(=O)[C@@H]2CSSC[C@H](NC(=O)[C@H](C(C)C)NC(=O)[C@H](CCCNC(=N)N)NC1=O)C(=O)N[C@@H](Cc1ccc(O)cc1)C(=O)N[C@@H](CCCNC(=N)N)C(=O)N[C@@H](CCCNC(=N)N)C(=O)N[C@H](C(=O)N[C@@H](CC(N)=O)C(=O)O)CSSC[C@H](NC(=O)[C@H](Cc1ccccc1)NC(=O)CN)C(=O)N[C@@H](Cc1ccccc1)C(=O)N[C@@H](CCCNC(=N)N)C(=O)N[C@@H](CO)C(=O)N2` [compound 377] (H-GFCFRSCVRRNGVRVCYRRCN-OH; disulfide 3-20, 7-16 (inferred); N-terminus and C-terminus assumed) gave a fraction unbound of 0.35. In the case of `CC(C)[C@@H]1NC(=O)CNC(=O)[C@H](CC(N)=O)NC(=O)[C@H](CCCNC(=N)N)NC(=O)[C@H](CCCCN)NC(=O)[C@H](C(C)C)NC(=O)[C@@H]2CSSC[C@H](NC(=O)[C@H](CCCCN)NC(=O)[C@H](CCCNC(=N)N)NC1=O)C(=O)N[C@@H](Cc1ccc(O)cc1)C(=O)N[C@@H](CCCNC(=N)N)C(=O)N[C@@H](CCCNC(=N)N)C(=O)N[C@H](C(=O)N[C@@H](CC(N)=O)C(=O)O)CSSC[C@H](NC(=O)[C@H](Cc1ccccc1)NC(=O)CN)C(=O)N[C@@H](Cc1ccccc1)C(=O)N[C@@H](CCCNC(=N)N)C(=O)N[C@@H](C(C)C)C(=O)N2` [compound 381] (H-GFCFRVCVKRNGVRKCYRRCN-OH; disulfide 3-20, 7-16 (inferred); N-terminus and C-terminus assumed), the fraction unbound was 0.02. In the case of `CC(C)[C@@H]1NC(=O)[C@@H]2CSSC[C@H](NC(=O)[C@H](C)NC(=O)[C@H](CCCNC(=N)N)NC(=O)[C@H](CCCCN)NC(=O)CNC(=O)[C@H](CC(N)=O)NC(=O)[C@H](CCCNC(=N)N)NC(=O)[C@H](Cc3ccc(O)cc3)NC1=O)C(=O)N[C@@H](Cc1ccc(O)cc1)C(=O)N[C@@H](CCCNC(=N)N)C(=O)N[C@@H](CCCNC(=N)N)C(=O)N[C@H](C(=O)N[C@@H](CC(N)=O)C(=O)O)CSSC[C@H](NC(=O)[C@H](Cc1ccccc1)NC(=O)CN)C(=O)NCC(=O)N[C@@H](CCCNC(=N)N)C(=O)N[C@@H](C(C)C)C(=O)N2` [compound 386] (H-GFCGRVCVYRNGKRACYRRCN-OH; disulfide 3-20, 7-16 (inferred); N-terminus and C-terminus assumed), the fraction unbound was 0.19. `CC(C)[C@@H]1NC(=O)[C@@H]2CSSC[C@H](NC(=O)[C@H](CO)NC(=O)[C@H](CCCNC(=N)N)NC(=O)[C@H](CCCCN)NC(=O)CNC(=O)[C@H](CC(N)=O)NC(=O)[C@H](CCCCN)NC(=O)[C@H](Cc3ccc(O)cc3)NC1=O)C(=O)N[C@@H](Cc1ccc(O)cc1)C(=O)N[C@@H](CCCNC(=N)N)C(=O)N[C@@H](CCCNC(=N)N)C(=O)N[C@H](C(=O)N[C@@H](CC(N)=O)C(=O)O)CSSC[C@H](NC(=O)[C@H](Cc1ccccc1)NC(=O)CN)C(=O)N[C@@H](Cc1c[nH]c3ccccc13)C(=O)N[C@@H](Cc1c[nH]cn1)C(=O)N[C@@H](C(C)C)C(=O)N2` [compound 390] (H-GFCWHVCVYKNGKRSCYRRCN-OH; disulfide 3-20, 7-16 (inferred); N-terminus and C-terminus assumed) gave a fraction unbound of 0.13. `CC(C)[C@@H]1NC(=O)[C@H](Cc2c[nH]cn2)NC(=O)[C@H](Cc2c[nH]c3ccccc23)NC(=O)[C@@H](NC(=O)[C@H](Cc2ccccc2)NC(=O)CN)CSSC[C@@H](C(=O)N[C@@H](CC(N)=O)C(=O)O)NC(=O)[C@H](CCCNC(=N)N)NC(=O)[C@H](CCCNC(=N)N)NC(=O)[C@H](Cc2ccc(O)cc2)NC(=O)[C@@H]2CSSC[C@H](NC1=O)C(=O)N[C@@H](C)C(=O)N[C@@H](CCCNC(=N)N)C(=O)N[C@@H](CCCNC(=N)N)C(=O)N[C@@H](CC(N)=O)C(=O)NCC(=O)N[C@@H](C)C(=O)N[C@@H](CCCNC(=N)N)C(=O)N[C@@H](C(C)C)C(=O)N2` [compound 394] (H-GFCWHVCARRNGARVCYRRCN-OH; disulfide 3-20, 7-16 (inferred); N-terminus and C-terminus assumed) gave a fraction unbound of 0.2.
